Each structure is given as a SMILES string. Bounds are passed on as bounds.

What all share (assay type): cell-based
Experiment [1] has as its system HepG2. Kind of experiment: Cell proliferative assay (MTT), HepG2. To be noted: Homo sapiens, 72 h incubation, read-out: IC50s HepG2. The method, then: (§1) The synthesized compounds were evaluated for their cytotoxin activity against suspended tumor cells. These cells were seeded on 96-well plates and incubated for 24 h. Selected compounds were added at various doses and incubated for 72 h, MTT was then added, and the absorbance was measured at a wavelength of 590 nm. IC50 values are expressed as the mean±SEM from the dose-response curves of at least three independent experiments.

The test system of experiment [2] is SW620. Kind of experiment: Cell proliferative assay (MTT), SW620. To be noted: Homo sapiens, SW-620, 72 h incubation, read-out: IC50s SW620. The method, then: as §1
Experiment [3] has as its system HT29. Kind of experiment: Cell proliferative assay (MTT), HT29. To be noted: Homo sapiens, HT-29, 72 h incubation, read-out: IC50s HT29. As for the experimental part:
as §1

Experiment [4] has as its system K562. The experiment can be described thus: Cell proliferative assay (MTT), K562. To be noted: Homo sapiens, 72 h incubation, read-out: IC50s K562. As for the experimental part:
as §1

The subject of experiment [5] is HCT116. The experiment can be described thus: Cell proliferative assay (MTT), HCT116. Conditions: Homo sapiens, HCT-116, 72 h incubation, read-out: IC50s HCT116. The method, then:
as §1

The test system of experiment [6] is A549. The experiment can be described thus: Cell proliferative assay (MTT), A549. To be noted: Homo sapiens, 72 h incubation, read-out: IC50s A549. The method, then: as §1
In experiment [7] the test system is A375. The experiment can be described thus: Cell proliferative assay (MTT), A375. Conditions: Homo sapiens, A-375, 72 h incubation, read-out: IC50s A375. As for the experimental part:
as §1

Experiment [8] deals with SMMC-7221. The experiment can be described thus: Cell proliferative assay (MTT), SMMC-7221. Conditions: 72 h incubation, read-out: IC50s SMMC-7221. The method, then:
as §1

Experiment [9] concerns LO2. Kind of experiment: Cell proliferative assay (MTT), LO2. To be noted: Homo sapiens, L02, 72 h incubation, read-out: IC50s LO2. The method, then: as §1

With `COc1cccc(/C=C/C(=O)c2ccc(OC)c3c2OC(C)(C)C=C3)c1` [SKLBC-2, (E)-1-(5-methoxy-2,2-dimethyl-2H-chromen-8-yl)-3-(3-methoxyphenyl)prop-2-en-1-one], the IC50 in experiment [1], in experiment [2], in experiment [3], in experiment [4] and in experiment [5] was > 10 µM each time.
As for `COc1ccc(C(=O)/C=C/c2cc(OC)c(OC)c(OC)c2)c2c1C=CC(C)(C)O2` [SKLBC-3, (E)-1-(5-methoxy-2,2-dimethyl-2H-chromen-8-yl)-3-(3,4,5-trimethoxyphenyl)prop-2-en-1-one], the IC50 in experiment [1] is > 10 µM; in experiment [2] it was 9.15 µM; in experiment [3], > 10 µM; in [4], > 10 µM; in experiment [5] it was 7.65 µM.
Turning to `COc1cc(OC)c(OC)cc1/C=C/C(=O)c1ccc(OC)c2c1OC(C)(C)C=C2` [SKLBC-5, (E)-1-(5-methoxy-2,2-dimethyl-2H-chromen-8-yl)-3-(2,4,5-trimethoxyphenyl)prop-2-en-1-one], the IC50 in experiment [1], in [2], in [3], in experiment [4] and in [5] was > 10 µM each time.
With `COc1ccc(C(=O)/C=C/c2ccc(F)cc2)c2c1C=CC(C)(C)O2` [SKLBC-6, (E)-3-(4-fluorophenyl)-1-(5-methoxy-2,2-dimethyl-2H-chromen-8-yl)prop-2-en-1-one], the IC50 in [1], in [2], in [3], in [4] and in experiment [5] was > 10 µM each time.
For `COc1ccc(C(=O)/C=C/c2cccc(F)c2)c2c1C=CC(C)(C)O2` [SKLBC-7, (E)-3-(3-fluorophenyl)-1-(5-methoxy-2,2-dimethyl-2H-chromen-8-yl)prop-2-en-1-one], the IC50 was > 10 µM in experiment [1]; > 10 µM in experiment [2]; > 10 µM in [3]; > 10 µM in experiment [4]; 1.92 µM in experiment [5].
Turning to `C#CCNc1cc(/C=C/C(=O)c2ccc(OC)c3c2OC(C)(C)C=C3)ccc1OC` [SKLBC-87, (E)-1-(5-methoxy-2,2-dimethyl-2H-chromen-8-yl)-3-(4-methoxy-3-(prop-2-yn-1-ylamino)phenyl)prop-2-en-1-one], the IC50 in experiment [1] was > 10 µM; in [4], > 10 µM; in [6], > 10 µM; in [7], > 10 µM; in [8], > 10 µM; in experiment [9], > 20 µM.
Consider `COc1ccc(/C=C/C(=O)c2ccc(OC)c3c2OC(C)(C)C=C3)cc1N(CC=C(C)C)CC=C(C)C` [SKLBC-88, (E)-3-(3-(bis(3-methylbut-2-en-1-yl)amino)-4-methoxyphenyl)-1-(5-methoxy-2,2-dimethyl-2H-chromen-8-yl)prop-2-en-1-one], for which the IC50 in experiment [1] was > 10 µM; in experiment [4], 7.5 µM; in experiment [6], > 10 µM; in experiment [7], > 10 µM; in [8], > 10 µM; in experiment [9], 9.7 µM.
As to `COc1ccc(/C=C/C(=O)c2ccc(OC)c3c2OC(C)(C)C=C3)cc1NCCN1CCOCC1` [SKLBC-89, (E)-1-(5-methoxy-2,2-dimethyl-2H-chromen-8-yl)-3-(4-methoxy-3-((2-morpholinoethyl)amino)phenyl)prop-2-en-1-one], the IC50 was found to be 0.05 µM in [1]; 0.093 µM in experiment [4]; 0.215 µM in experiment [6]; 0.215 µM in [7]; 0.245 µM in experiment [8]; 2.65 µM in experiment [9].
Regarding `COc1ccc(/C=C/C(=O)c2ccc(OC)c3c2OC(C)(C)C=C3)cc1N(Cc1ccccc1)Cc1ccccc1` [SKLBC-91, (E)-3-(3-(dibenzylamino)-4-methoxyphenyl)-1-(5-methoxy-2,2-dimethyl-2H-chromen-8-yl)prop-2-en-1-one], the IC50 is > 10 µM in [1]; 0.57 µM in experiment [4]; > 10 µM in [6]; > 10 µM in experiment [7]; > 10 µM in experiment [8]; > 10 µM in experiment [9].
Consider `COc1ccc(/C=C/C(=O)c2ccc(OC)c3c2OC(C)(C)C=C3)cc1NC(C)=O` [SKLBC-92, (E)-N-(2-methoxy-5-(3-(5-methoxy-2,2-dimethyl-2H-chromen-8-yl)-3-oxoprop-1-en-1-yl)phenyl)acetamide], for which the IC50 in [1] was 2.85 µM; in experiment [4] it was 3.5 µM; in experiment [6], 5 µM; in experiment [7] it was 2.15 µM; in experiment [8], 2.24 µM; in experiment [9] it was > 10 µM.
For the molecule `C=CC(=O)Nc1cc(/C=C/C(=O)c2ccc(OC)c3c2OC(C)(C)C=C3)ccc1OC` [SKLBC-94, (E)-N-(2-methoxy-5-(3-(5-methoxy-2,2-dimethyl-2H-chromen-8-yl)-3-oxoprop-1-en-1-yl)phenyl)acrylamide], the IC50 in experiment [1] was > 10 µM; in experiment [4], > 10 µM; in experiment [6], > 10 µM; in experiment [7], > 10 µM; in experiment [8], > 10 µM; in experiment [9], > 20 µM.
As to `CCCCC(=O)Nc1cc(/C=C/C(=O)c2ccc(OC)c3c2OC(C)(C)C=C3)ccc1OC` [SKLBC-95, (E)-N-(2-methoxy-5-(3-(5-methoxy-2,2-dimethyl-2H-chromen-8-yl)-3-oxoprop-1-en-1-yl)phenyl)pentanamide], the IC50 in experiment [1] is > 10 µM; in experiment [4], > 10 µM; in experiment [6], > 10 µM; in experiment [7] it was > 10 µM; in [8], > 10 µM; in experiment [9] it was > 20 µM.
Regarding `COc1ccc(/C=C/C(=O)c2ccc(OC)c3c2OC(C)(C)C=C3)cc1NC(=O)C(C)C` [SKLBC-96, (E)-N-(2-methoxy-5-(3-(5-methoxy-2,2-dimethyl-2H-chromen-8-yl)-3-oxoprop-1-en-1-yl)phenyl)isobutyramide], the IC50 in experiment [1] was > 10 µM; in experiment [4], > 10 µM; in [6], > 10 µM; in experiment [7], > 10 µM; in [8] it was > 10 µM; in experiment [9], > 20 µM.
`COc1ccc(/C=C/C(=O)c2ccc(OC)c3c2OC(C)(C)C=C3)cc1NC(=O)Cc1cccc(C(F)(F)F)c1` [SKLBC-97, (E)-N-(2-methoxy-5-(3-(5-methoxy-2,2-dimethyl-2H-chromen-8-yl)-3-oxoprop-1-en-1-yl)phenyl)-2-(3-(trifluoromethyl)phenyl)acetamide]: the IC50 in [1], in [4], in [6], in experiment [7], in experiment [8] and in experiment [9] was > 10 µM throughout.
In the case of `COc1ccc(/C=C/C(=O)c2ccc(OC)c3c2OC(C)(C)C=C3)cc1NC(N)=O` [SKLBC-98, (E)-1-(2-methoxy-5-(3-(5-methoxy-2,2-dimethyl-2H-chromen-8-yl)-3-oxoprop-1-en-1-yl)phenyl)urea], the IC50 is 3.6 µM in experiment [1]; 7.85 µM in experiment [4]; 8.6 µM in [6]; 2.4 µM in [7]; 9.2 µM in [8]; > 10 µM in [9].
Consider `COc1ccc(/C=C/C(=O)c2ccc(OC)c3c2OC(C)(C)C=C3)cc1NS(C)(=O)=O` [SKLBC-99, (E)-N-(2-methoxy-5-(3-(5-methoxy-2,2-dimethyl-2H-chromen-8-yl)-3-oxoprop-1-en-1-yl)phenyl)methanesulfonamide], for which the IC50 in experiment [1] was 10 µM; in experiment [4], 8.85 µM; in [6], > 10 µM; in experiment [7] it was 9 µM; in experiment [8], 5.6 µM; in [9], 9.8 µM.
Consider `COc1ccc(/C=C/C(=O)c2ccc(OC)c3c2OC(C)(C)C=C3)cc1NS(=O)(=O)C1CC1` [SKLBC-100, (E)-N-(2-methoxy-5-(3-(5-methoxy-2,2-dimethyl-2H-chromen-8-yl)-3-oxoprop-1-en-1-yl)phenyl)cyclopropanesulfonamide], for which the IC50 in [1] is > 10 µM; in [4], > 10 µM; in experiment [6] it was > 10 µM; in experiment [7], > 10 µM; in experiment [8] it was > 10 µM; in [9], > 20 µM.
With `COc1ccc(/C=C/C(=O)c2ccc(OC)c3c2OC(C)(C)C=C3)cc1NS(=O)(=O)c1ccc(C)cc1` [SKLBC-101, (E)-N-(2-methoxy-5-(3-(5-methoxy-2,2-dimethyl-2H-chromen-8-yl)-3-oxoprop-1-en-1-yl)phenyl)-4-methylbenzenesulfonamide], the IC50 in experiment [1] is > 10 µM; in [4] it was > 10 µM; in experiment [6] it was > 10 µM; in experiment [7] it was > 10 µM; in experiment [8], 6.8 µM; in experiment [9], > 10 µM.
With `COc1ccc(/C=C/C(=O)c2ccc(OC)c3c2OC(C)(C)C=C3)cc1NS(=O)(=O)Cc1ccccc1` [SKLBC-102, (E)-N-(2-methoxy-5-(3-(5-methoxy-2,2-dimethyl-2H-chromen-8-yl)-3-oxoprop-1-en-1-yl)phenyl)-1-phenylmethanesulfonamide], the IC50 in [1] is > 10 µM; in [4] it was > 10 µM; in experiment [6], > 10 µM; in [7], > 10 µM; in experiment [8], > 10 µM; in experiment [9], > 20 µM.

These data come from US9394268B2, “(E)-1-(5-methoxy-2,2-dimethyl-2H-chromen-8-yl)-3-(4-methoxyphenyl)prop-2-en-1-one and analogs thereof, as well as preparation method and use thereof” (Sichuan University, priority 2012, dated 2016).
